What follows are compounds tested against T1, cPLA2 (Homo sapiens, UniProt P47712) (assay: Coumarine assay (hydrolysis of 7-hydroxycoumarinyl 6-heptenoate)). Details: 60 μM 7-hydroxycoumarinyl 6-heptenoate, pH 7.5; read-out: Coumarin IC50.
T1 sequence (P47712 1-749): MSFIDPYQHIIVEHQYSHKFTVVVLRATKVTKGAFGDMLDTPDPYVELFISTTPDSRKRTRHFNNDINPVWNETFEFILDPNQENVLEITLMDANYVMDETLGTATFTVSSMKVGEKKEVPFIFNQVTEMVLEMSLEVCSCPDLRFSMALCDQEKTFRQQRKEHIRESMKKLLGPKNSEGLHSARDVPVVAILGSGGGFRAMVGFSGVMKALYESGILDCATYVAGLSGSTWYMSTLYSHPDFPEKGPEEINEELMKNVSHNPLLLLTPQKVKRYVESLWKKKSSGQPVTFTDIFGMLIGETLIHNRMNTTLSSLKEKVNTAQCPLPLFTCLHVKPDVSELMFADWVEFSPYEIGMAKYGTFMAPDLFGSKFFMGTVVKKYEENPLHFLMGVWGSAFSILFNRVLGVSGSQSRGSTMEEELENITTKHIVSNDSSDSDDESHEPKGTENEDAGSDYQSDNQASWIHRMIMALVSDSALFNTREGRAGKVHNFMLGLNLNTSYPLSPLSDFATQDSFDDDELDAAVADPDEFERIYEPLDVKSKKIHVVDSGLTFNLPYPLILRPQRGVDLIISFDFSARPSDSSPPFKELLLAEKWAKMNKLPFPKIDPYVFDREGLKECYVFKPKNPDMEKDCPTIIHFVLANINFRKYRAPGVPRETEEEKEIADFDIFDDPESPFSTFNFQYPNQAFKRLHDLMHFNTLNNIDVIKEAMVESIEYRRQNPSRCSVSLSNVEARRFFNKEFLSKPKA
Type: biochemical
An IC50 of 900 nM was found for `O=C(O)c1ccc(OCCc2c(CCNS(=O)(=O)c3ccc(N4CCOCC4)nc3)n(C(c3ccccc3)c3ccccc3)c3ccc(Cl)cc23)cc1` [Example 179, 4-{2-[1-benzhydryl-5-chloro-2-(2-{[(6-morpholin-4-ylpyridin-3-yl)sulfonyl]amino}ethyl)-1H-indol-3-yl]ethoxy}benzoic acid] in this work. An IC50 of 230 nM was found for `O=C(O)c1ccc(CCCc2c(CCNS(=O)(=O)c3ccsc3)n(C(c3ccccc3)c3ccccc3)c3ccc(Cl)cc23)cc1` [Example 180, 4-[3-(1-benzhydryl-5-chloro-2-{2-[(thien-3-ylsulfonyl)amino]ethyl}-1H-indol-3-yl)propyl]benzoic acid] in this work. An IC50 of 320 nM was found for `O=C(O)c1ccc(CCCc2c(CCNS(=O)(=O)c3ccc(N4CCOCC4)nc3)n(C(c3ccccc3)c3ccccc3)c3ccc(Cl)cc23)cc1` [Example 181, 4-{3-[1-benzhydryl-5-chloro-2-(2-{[(6-morpholin-4-ylpyridin-3-yl)sulfonyl]amino}ethyl)-1H-indol-3-yl]propyl}benzoic acid] in this work. An IC50 of 600 nM was found for `O=C(O)c1ccc(OCCc2c(CCNS(=O)(=O)c3cccc4nonc34)n(C(c3ccccc3)c3ccccc3)c3ccc(Cl)cc23)cc1` [Example 182, 4-(2-{1-Benzhydryl-2-[2-(benzo[1,2,5]oxadiazole-4-sulfonylamino)-ethyl]-5-chloro-1H-indol-3-yl}-ethoxy)benzoic acid] in this work. An IC50 of 350 nM was found for `O=C(O)c1ccc(OCCc2c(CCNS(=O)(=O)c3ccccc3OCc3ccccc3)n(C(c3ccccc3)c3ccccc3)c3ccc(Cl)cc23)cc1` [Example 184, 4-(2-{1-Benzhydryl-2-[2-(2-benzyloxy-benzenesulfonylamino)-ethyl]-5-chloro-1H-indol-3-yl}-ethoxy)benzoic acid] in this work. An IC50 of 170 nM was found for `CC(C)Oc1ccccc1S(=O)(=O)NCCc1c(CCOc2ccc(C(=O)O)cc2)c2cc(Cl)ccc2n1C(c1ccccc1)c1ccccc1` [Example 185, 4-(2-{1-Benzhydryl-5-chloro-2-[2-(2-isopropoxy-benzenesulfonylamino)-ethyl]-1H-indol-3-yl}-ethoxy)benzoic acid] in this work. An IC50 of 100 nM was found for `CC(C)Oc1ccccc1S(=O)(=O)NCCc1c(CCCc2ccc(C(=O)O)cc2)c2cc(Cl)ccc2n1C(c1ccccc1)c1ccccc1` [Example 186, 4-(3-{1-Benzhydryl-5-chloro-2-[2-(2-isopropoxy-benzenesulfonylamino)-ethyl]-1H-indol-3-yl}-propyl)benzoic acid] in this work. An IC50 of 200 nM was found for `O=C(O)c1ccc(CCCc2c(CCNS(=O)(=O)c3ccccc3OCc3ccccc3)n(C(c3ccccc3)c3ccccc3)c3ccc(Cl)cc23)cc1` [Example 187, 4-(3-{1-Benzhydryl-2-[2-(2-benzyloxy-benzenesulfonylamino)-ethyl]-5-chloro-1H-indol-3-yl}-propyl)benzoic acid] in this work. An IC50 of 530 nM was found for `O=C(O)c1ccc(OCCc2c(CCNS(=O)(=O)c3ccccc3Cl)n(C(c3ccccc3)c3ccccc3)c3ccc(Cl)cc23)cc1F` [Example 190, 4-(2-{1-Benzhydryl-5-chloro-2-[2-(2-chloro-benzenesulfonylamino)-ethyl]-1H-indol-3-yl}-ethoxy)-2-fluoro-benzoic acid] in this work. An IC50 of 200 nM was found for `Cc1cccc(Cl)c1S(=O)(=O)NCCc1c(CCOc2ccc(C(=O)O)c(F)c2)c2cc(Cl)ccc2n1C(c1ccccc1)c1ccccc1` [Example 191, 4-(2-{1-Benzhydryl-5-chloro-2-[2-(2-chloro-6-methyl-benzenesulfonylamino)-ethyl]-1H-indol-3-yl}-ethoxy)-2-fluoro-benzoic acid] in this work. An IC50 of less than 3700 nM was found for `O=S(=O)(Cc1ccc(Cl)c(Cl)c1)NCCc1c(CCOc2ccc(-c3nn[nH]n3)cc2)c2cc(Cl)ccc2n1C(c1ccccc1)c1ccccc1` [Example 192, N-[2-(1-benzhydryl-5-chloro-3-{2-[4-(2H-tetraazol-5-yl)phenoxy]ethyl}-1H-indol-2-yl)ethyl]-1-(3,4-dichlorophenyl)methanesulfonamide] in this work. An IC50 of 1800 nM was found for `O=S(=O)(NCCc1c(CCOc2ccc(-c3nn[nH]n3)cc2)c2cc(Cl)ccc2n1C(c1ccccc1)c1ccccc1)c1ccccc1Cl` [Example 193, N-[2-(1-benzhydryl-5-chloro-3-{2-[4-(2H-tetrazol-5-yl)-phenoxy]-ethyl}-1H-indol-2-yl)-ethyl]-2-chlorobenzenesulfonamide] in this work. An IC50 of 560 nM was found for `O=C(O)c1ccc(OCCc2c(CCNS(=O)(=O)c3c(F)cc(F)cc3F)n(C(c3ccccc3)c3ccccc3)c3ccc(Cl)cc23)cc1` [Example 196, 4-(2-{1-Benzhydryl-5-chloro-2-[2-(2,4,6-trifluoro-benzenesulfonylamino)-ethyl]-1H-indol-3-yl}-ethoxy)-benzoic acid] in this work. An IC50 of 400 nM was found for `COc1ccc(S(=O)(=O)NCCc2c(CCOc3ccc(C(=O)O)cc3)c3cc(Cl)ccc3n2C(c2ccccc2)c2ccccc2)c([N+](=O)[O-])c1` [Example 197, 4-(2-{1-Benzhydryl-5-chloro-2-[2-(4-methoxy-2-nitro-benzenesulfonylamino)-ethyl]-1H-indol-3-yl}-ethoxy)-benzoic acid] in this work. An IC50 of 700 nM was found for `O=C(O)c1ccc(OCCc2c(CCNS(=O)(=O)c3cccc(OC(F)(F)F)c3)n(C(c3ccccc3)c3ccccc3)c3ccc(Cl)cc23)cc1` [Example 198, 4-(2-{1-Benzhydryl-5-chloro-2-[2-(3-trifluoromethoxy-benzenesulfonylamino)-ethyl]-1H-indol-3-yl}-ethoxy)-benzoic acid] in this work. An IC50 of 450 nM was found for `O=C(O)c1ccc(CCCc2c(CCNS(=O)(=O)c3c(F)cc(F)cc3F)n(C(c3ccccc3)c3ccccc3)c3ccc(Cl)cc23)cc1` [Example 199, 4-(3-{1-Benzhydryl-5-chloro-2-[2-(2,4,6-trifluoro-benzenesulfonylamino)-ethyl]-1H-indol-3-yl}-propyl)-benzoic acid] in this work. An IC50 of 350 nM was found for `COc1ccc(S(=O)(=O)NCCc2c(CCCc3ccc(C(=O)O)cc3)c3cc(Cl)ccc3n2C(c2ccccc2)c2ccccc2)c([N+](=O)[O-])c1` [Example 200, 4-(3-{1-Benzhydryl-5-chloro-2-[2-(4-methoxy-2-nitro-benzenesulfonylamino)-ethyl]-1H-indol-3-yl}-propyl)-benzoic acid] in this work. An IC50 of 350 nM was found for `O=C(O)c1ccc(CCCc2c(CCNS(=O)(=O)c3cccc(OC(F)(F)F)c3)n(C(c3ccccc3)c3ccccc3)c3ccc(Cl)cc23)cc1` [Example 201, 4-(3-{1-Benzhydryl-5-chloro-2-[2-(3-trifluoromethoxy-benzenesulfonylamino)-ethyl]-1H-indol-3-yl}-propyl)-benzoic acid] in this work. An IC50 of 300 nM was found for `CS(=O)(=O)c1ccc(S(=O)(=O)NCCc2c(CCCc3ccc(C(=O)O)cc3)c3cc(Cl)ccc3n2C(c2ccccc2)c2ccccc2)cc1` [Example 202, 4-(3-{1-Benzhydryl-5-chloro-2-{2-({[4-(methysulfonyl)phenyl]sulfonyl}amino)ethyl]-1H-indol-3-yl}propyl)benzoic acid] in this work. An IC50 of 690 nM was found for `CS(=O)(=O)c1ccc(S(=O)(=O)NCCc2c(CCOc3ccc(C(=O)O)cc3)c3cc(Cl)ccc3n2C(c2ccccc2)c2ccccc2)cc1` [Example 203, 4-(2-{1-benzhydryl-5-chloro-2-[2({[4-(methylsulfony)phenyl]sulfonyl}amino)ethyl]-1H-indol-3-yl}ethoxy)benzoic acid] in this work. An IC50 of 200 nM was found for `CS(=O)(=O)c1ccccc1S(=O)(=O)NCCc1c(CCCc2ccc(C(=O)O)cc2)c2cc(Cl)ccc2n1C(c1ccccc1)c1ccccc1` [Example 204, 4-(3-{1-Benzhydryl-5-chloro-2-[2({[2-(methylsulfonyl)phenyl]sulfonyl}amino)ethyl]-1H-indol-3-yl}propyl)benzoic acid] in this work. An IC50 of 370 nM was found for `CS(=O)(=O)c1ccccc1S(=O)(=O)NCCc1c(CCOc2ccc(C(=O)O)cc2)c2cc(Cl)ccc2n1C(c1ccccc1)c1ccccc1` [Example 205] in this work. An IC50 of 500 nM was found for `O=C(O)c1ccc(CCCc2c(CCNS(=O)(=O)c3cccc(-c4ccccc4)c3)n(C(c3ccccc3)c3ccccc3)c3ccc(Cl)cc23)cc1` [Example 206, 4-[3-(1-benzhydryl-2-{-2-[-(1,1′-biphenyl-3-ylsulfonyl)amino]ethyl}-5-chloro-1H-indol-3-yl)propyl]benzoic acid] in this work. An IC50 of 1400 nM was found for `O=C(O)c1ccc(OCCc2c(CCNS(=O)(=O)c3cccc(-c4ccccc4)c3)n(C(c3ccccc3)c3ccccc3)c3ccc(Cl)cc23)cc1` [Example 207, 4-[2-(1-benzhydryl-2-{2-[(1,1′-biphenyl-3-ylsulfonyl)amino]ethyl}-5-chloro-1H-indol-3-yl)ethoxy]benzoic acid] in this work. An IC50 of 240 nM was found for `O=C(O)c1ccc(CCCc2c(CCNS(=O)(=O)c3ccccc3C(F)(F)F)n(C(c3ccccc3)c3ccccc3)c3ccc(Cl)cc23)cc1` [Example 208] in this work. An IC50 of 350 nM was found for `O=C(O)c1ccc(OCCc2c(CCNS(=O)(=O)c3ccccc3C(F)(F)F)n(C(c3ccccc3)c3ccccc3)c3ccc(Cl)cc23)cc1` [Example 209, 4-[2-{1-Benzhydryl-5-chloro-2-[2-({[2-(trifluoromethyl)phenyl]sulfonyl}amino)ethyl]-1H-indol-3-yl}ethoxy)benzoic acid] in this work.
